The text below walks through data of patent US20230416202A1, “Small Molecule Compounds and Compositions” (Telo Therapeutics, Inc., priority 2020, published 2023).

Where two headings read alike, the source gives them in different places. Some results are limits rather than exact numbers.

Holding throughout (format): cell-based, human
The subject of one experiment is Mutant TERT. In words: HepG2 hTERT mRNA assay (qPCR). The conditions noted are these: Homo sapiens; HepG2 cells (mutated TERT), 48 hours, TERT mRNA via qPCR. As to the method: (§1) HepG2 cells (hepatocyte carcinoma (HCC) cells; with mutated TERT) or HEK293T cells (with wild type (wt) TERT) were seeded at 4,000 cells/well in 96-well plates. The following day, test compounds were added to cells for at concentrations of 25 uM, 12.5 uM, 6.25 uM, 3.125 uM, 1.563 uM, 0.781 uM, 0.391 uM, 0.195 uM, 0.098 uM or vehicle control (0.1% DMSO). Each condition was tested in three replicate wells. 48 hours post drug addition, the cells were harvested for RNA using the 96-Magmax RNA Isolation kit (Cat. No. AM1830). RNA was converted to cDNA using the Superscript III First strand cDNA synthesis kit (Cat. No. 18080051). RNA and cDNA concentration and quality were determined using the NanoQuant nucleic acid quantification method. 500 ng cDNA from each sample was used to detect TERT mRNA via qPCR. GUSB was also measured as an internal control and fold change to vehicle control was determined using the delta CT method.

The next experiment relates to HEK293 cells. Put plainly: HEK293 cytostatic. The conditions noted are these: for IC50: read-out: wt Tert IC50 uM HEK293 cytostatic.
A further experiment concerns wt TERT. Put plainly: HEK293T hTERT mRNA assay (qPCR). As to the method:
as §1
For orientation: In qPCR the cycle at which signal appears reflects the starting amount.

For the next experiment, the system named is HepG2 cells. Put plainly: HepG2 cytostatic.
[1] abbreviates: Homo sapiens, HEK293, HEK293 cells.
Setting [2] is: Homo sapiens, HEK-293T, wild type TERT, read-out: wt TERT IC50.
Where [3] appears, read: Homo sapiens, HEK293 cells (wt TERT), 48 hours, class symbols, read-out: wt TERT IC50 uM HEK293.

For orientation: IC50 means the point on the concentration scale where inhibition reaches its midpoint. Take `COc1cccc([C@H]2C[C@H](CC(=O)O)CN(Cc3ccc(C(F)(F)F)cc3)C2)c1` (racemic) [Compound 103, 2-((anti)-5-(3-methoxyphenyl)-1-(4-(trifluoromethyl)benzyl)piperidin-3-yl)acetic acid]: the IC50 is > 25 µM in the experiment on Mutant TERT; 5 to 25 µM in the experiment with HEK293 cells (setting [1]); > 25 µM in the experiment on wt TERT (setting [2]); > 25 µM in the experiment with wt TERT (setting [3]); 5 to 25 µM with HepG2 cells (Homo sapiens).

Consider `C#Cc1ccc(CN2C[C@H](CC(=O)O)C[C@@H](c3ccc(C(F)(F)F)cc3)C2)cc1` [Compound 112, 2-((3S,5S)-1-(4-ethynylbenzyl)-5-(4-(trifluoromethyl)phenyl)piperidin-3-yl)acetic acid], for which the IC50 in the experiment on Mutant TERT was < 0.5 µM; in the experiment on HEK293 cells (setting [1]) it was > 25 µM; in the experiment on wt TERT (setting [2]) it was > 25 µM; in the experiment with wt TERT (setting [3]), > 25 µM; in the experiment with HepG2 cells (Homo sapiens) it was 0.5 to 5 µM.

For the compound `O=C(O)CC1CC(c2ccc(C(F)(F)F)cc2)CN(Cc2ccc(C(F)(F)F)cc2)C1` (racemic) [Compound 100, rac-2-((anti)-1-(4-(trifluoromethyl)benzyl)-5-(4-(trifluoromethyl)phenyl)piperidin-3-yl)acetic acid], the IC50 with Mutant TERT is 0.5 to 5 µM; in the experiment on wt TERT (setting [2]), > 25 µM; with wt TERT (setting [3]), > 25 µM. Besides, in the experiment on HEK293 cells (HEK293 cells), the “wt Tert IC50 uM HEK293 cytostatic” value was ““++”-“+””. Besides, the “Cytostatic IC50 uM HepG2 cytostatic” value in the experiment on HepG2 cells is on record as ““++”-“+””.

In the case of `COc1ccc(CN2C[C@H](CC(=O)O)C[C@@H](c3ccc(C(F)(F)F)cc3)C2)cc1` [Compound 109], the IC50 with Mutant TERT is > 25 µM; in the experiment on HEK293 cells (setting [1]), 5 to 25 µM; with wt TERT (setting [2]) it was > 25 µM; in the experiment with wt TERT (setting [3]) it was > 25 µM; in the experiment on HepG2 cells (Homo sapiens) it was 0.5 to 5 µM.

On to `O=C(O)C[C@H]1C[C@H](c2ccc(C(F)(F)F)cc2)CN(Cc2ccc(C(F)(F)F)cc2)C1` [Compound 102, 2-((3R,5R)-1-(4-(trifluoromethyl)benzyl)-5-(4-(trifluoromethyl)phenyl)piperidin-3-yl)acetic acid], for which the IC50 was 5 to 25 µM with Mutant TERT; 5 to 25 µM with HEK293 cells (setting [1]); > 25 µM in the experiment on wt TERT (setting [2]); > 25 µM in the experiment with wt TERT (setting [3]); 5 to 25 µM in the experiment with HepG2 cells (Homo sapiens).

Turning to `CC(C(=O)O)[C@@H]1C[C@@H](c2ccc(C(F)(F)F)cc2)CN(Cc2ccc(C(F)(F)F)cc2)C1` (single isomer, unassigned) [Compound 113], the IC50 was 0.5 to 5 µM with Mutant TERT; 5 to 25 µM in the experiment with HEK293 cells (HEK293 cells); > 25 µM with wt TERT (setting [2]); > 25 µM in the experiment with wt TERT (setting [3]); 0.5 to 5 µM with HepG2 cells (Homo sapiens).

`COc1cc(CN2C[C@H](CC(=O)O)C[C@@H](c3ccc(C(F)(F)F)cc3)C2)cc(C(F)(F)F)c1` [Compound 108, 2-((3S,5S)-1-(3-methoxy-5-(trifluoromethyl)benzyl)-5-(4-(trifluoromethyl)phenyl)piperidin-3-yl)acetic acid]: the IC50 with Mutant TERT, in the experiment with wt TERT (setting [2]), in the experiment with wt TERT (setting [3]) and in the experiment on HepG2 cells (Homo sapiens) was > 25 µM each time.

`CC(C(=O)O)[C@@H]1C[C@@H](c2ccc(C(F)(F)F)cc2)CN(Cc2ccc(C(F)(F)F)cc2)C1` (single isomer, unassigned) [Compound 114]: the IC50 in the experiment on HEK293 cells (HEK293 cells) was 0.5 to 5 µM; in the experiment on wt TERT (HEK293 cells (wt TERT), 48 hours, class symbols, read-out: wt TERT IC50 uM HEK293), > 25 µM; with wt TERT (wild type TERT, read-out: wt TERT IC50), > 25 µM; in the experiment with HepG2 cells it was 0.5 to 5 µM.

As to `O=C(O)C[C@@H]1C[C@@H](c2ccc(C(F)(F)F)cc2)CN(Cc2cccc(C(F)(F)F)c2)C1` [Compound 111, 2-((3S,5S)-1-(3-(trifluoromethyl)benzyl)-5-(4-(trifluoromethyl)phenyl)piperidin-3-yl)acetic acid], the IC50 was < 0.5 µM in the experiment with Mutant TERT, > 25 µM in the experiment on wt TERT (setting [2]) and > 25 µM with wt TERT (setting [3]).

Regarding `O=C(O)C[C@H]1C[C@H](c2cccc(C(F)(F)F)c2)CN(Cc2ccc(C(F)(F)F)cc2)C1` (racemic) [Compound 104, rac-2-((anti)-1-(4-(trifluoromethyl)benzyl)-5-(3-(trifluoromethyl)phenyl)piperidin-3-yl)acetic acid], the IC50 was 5 to 25 µM in the experiment with HEK293 cells (setting [1]), > 25 µM in the experiment with wt TERT (setting [2]), > 25 µM in the experiment on wt TERT (setting [3]) and 5 to 25 µM in the experiment on HepG2 cells (Homo sapiens).
